Legend:
KRas G12D = target: T1, KRas G12D (Homo sapiens, UniProt P01116, G12D); assay: KRas G12D Surface Plasmon Resonance (SPR) Binding Assay; conditions: Biacore T200, 20° C., 1:1 binding model, read-out: KD (nM), Determination of KRas G12D KD
T1 construct: Avidin-tag (so in the source)
Experimental: This Example illustrates that exemplary compounds of the present invention bind to KRas G12D as measured by surface plasmon resonance (SPR).
Briefly, 1 L of 1.05×HBS-Mg buffer (262.5 mM BioUltra Hepes, pH 7.5, 157.5 mM NaCl, 105 mM MgCl2, 0.525 mM TCEP, 0.0305% Brij-35) was prepared and filter sterilized using a 0.22 μm bottle top filter. Approximately 50 mL of 1.05×HBS-Mg buffer was removed and saved for future dilutions. A 50 mL aliquot of DMSO (Sigma Aldrich DMSO Lot. #SHBK2079) was added and continued to stir for 10 minutes, creating the final 1.0×HBS-Mg buffer (250 mM BioUltra Hepes pH 7.5, 150 mM NaCl, 100 mM MgCl2, 0.5 mM TCEP, 0.03% Brij-35).
Biacore T200 instrument was primed using 1.0×HBS-Mg buffer before docking a GE Streptavidin (SA) chip and then primed two additional times prior to beginning the immobilization step. All immobilized protein mixtures were created using 3-5 mg/mL Biotinylated Avidin-tagged KRAS protein using the following immobilization settings: SA chip type, 1 flow cells per cycle, 720 second contact time, and 5 μL/min flow rate. Normalization of the detector was also performed during the immobilization step using the GE BiaNormalize solution.
All compounds were diluted to 10 mM in 100% DMSO prior to being diluted 20× in 1.05× buffer. Another 10× dilution was created using 1.0× buffer prior to performing a series of 3×dilutions to create a compound concentration curve using the following assay settings: 20° C. analysis temperature, General Settings=10 Hz data collection rate and multi-detection; Assay Steps=all set to LMW kinetics; Cycle Types=LMW kinetics (60 s contact time, 120 s dissociation time, 100 μL/min flow rate, extra wash after injection with 50% DMSO, flow path 1, 2, 3, 4); Flow path detection=2−1, 4−3). Data evaluation was performed using the Biacore T200 Evaluation software and data fit to 1:1 binding model.

[1] = target: T2, GDP-loaded recombinant human KRAS G12D (Homo sapiens, UniProt P01116, G12D); assay: KRas G12D Binding Assay (TR-FRET displacement of Cy5 labelled tracer); conditions: 60 minute incubation at 22° C.
T2 construct: corresponding to amino acids 1:169, produced at Array BioPharma; biotin (biotinylated); made in house
T2 sequence (P01116 1-169 isoform P01116-2 G12D): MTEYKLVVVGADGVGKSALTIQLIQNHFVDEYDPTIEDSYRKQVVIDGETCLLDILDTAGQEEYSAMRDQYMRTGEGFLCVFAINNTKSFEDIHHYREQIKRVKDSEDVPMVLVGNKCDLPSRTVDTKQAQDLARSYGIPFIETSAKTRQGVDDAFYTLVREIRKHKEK
Experimental: This Example illustrates that exemplary compounds of the present invention bind to KRas G12D and are capable of displacing a labeled tracer ligand occupying the KRas G12D binding site.
The ability of a compound to bind to KRAS G12D was measured using a TR-FRET displacement assay. Biotinylated GDP-loaded recombinant human KRAS G12D (corresponding to amino acids 1:169, produced at Array BioPharma) was incubated with a custom-made Cy5 labelled tracer, europium labelled streptavidin and compound (2% DMSO final) in buffer (50 mM HEPES [pH 7.5], 5 mM MgCl2, 0.005% Tween-20 & 1 mM DTT). After a 60 minute incubation at 22° C., the reaction was measured using a PerkinElmer EnVision multimode plate reader via TR-FRET dual wavelength detection, and the percent of control (POC) calculated using a ratiometric emission factor. […] The POC values were fit to a 4-parameter logistic curve and the IC50 value was determined as the concentration where the curve crosses 50 POC.

[2] = test system: KRas G12D-mediated phosphorylation of ERK; assay: Inhibition of KRas G12D-mediated phosphorylation of ERK in AGS cells; type: cell-based; conditions: Homo sapiens; AGS cells expressing G12D, 3 hours, phospho-ERK normalized to GAPDH
Experimental: AGS cells (ATCC CRL-1739) expressing G12D were grown in DMEM medium supplemented with 10% fetal bovine serum, 10 mM HEPES, and Penicillin/Streptomycin. Cells were plated in tissue culture treated 96 well plates at a density of 40,000 cells/well and allowed to attach for 12-14 hours. Diluted compounds were then added in a final concentration of 0.5% DMSO. After 3 hours, the medium was removed, 150 μl of 4.0% formaldehyde was added and the plates incubated at room temperature for 20 minutes. The plates were washed with PBS, and permeabilized with 150p of ice cold 100% methanol for 10 minutes. Non-specific antibody binding to the plates was blocked using 100 μL Licor blocking buffer (Li-Cor Biotechnology, Lincoln NE) for 1 hour at room temperature.
The amount of phosho-ERK was determined using an antibody specific for the phosphorylated form of ERK and compared to the amount of GAPDH. Primary antibodies used for the detection were added as follows: Phospho-ERK (Cell Signaling cs-9101) diluted 1:500 and GAPDH (Millipore MAB374) diluted 1:5000 in Licor block+0.05% Tween 20. The plates were incubated for 2 hours at room temperature. The plates were washed with PBS+0.05% Tween 20.
Secondary antibodies used to visualize primary antibodies were added as follows: Anti-rabbit-680 diluted 1:1000 and Anti-mouse-800 diluted 1:1000 both in Licor block+0.05% Tween20, and were incubated for 1 hour at room temperature. The plates were washed with PBS +0.05% Tween 20. A 100 μl aliquot of PBS was added to each well and the plates were read on a Li-Cor Odyssey CLX plate reader phospho-ERK (Thr202/Tyr204) signal was normalized to the GAPDH signal for each well and percent of DMSO control values were calculated. IC50 values were generated using a 4-parameter fit of the dose response curve

T1 sequence (P01116 1-188 isoform P01116-2 G12D): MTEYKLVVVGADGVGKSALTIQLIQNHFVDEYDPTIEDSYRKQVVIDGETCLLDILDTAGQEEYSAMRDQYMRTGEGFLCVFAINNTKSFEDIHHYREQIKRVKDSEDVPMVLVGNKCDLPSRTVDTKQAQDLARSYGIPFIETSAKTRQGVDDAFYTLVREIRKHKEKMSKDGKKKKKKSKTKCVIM

Row | SMILES | Kd (KRas G12D) | IC50 [1] | IC50 [2]
1 | CN1CCC[C@H]1COc1nc(N2C[C@H]3CC[C@@H](C2)N3)c2ccc(-c3cc(O)cc4ccccc34)c(F)c2n1 [Example 8, 4-(4-((1R,5S)-3,8-diazabicyclo[3.2.1]octan-3-yl)-8-fluoro-2-(((S)-1-methylpyrrolidin-2-yl)methoxy)quinazolin-7-yl)naphthalen-2-ol] | 3 nM | 4.3 nM | 271 nM
2 | CN1CC(F)(F)C[C@H]1COc1nc(N2C[C@H]3CC[C@@H](C2)N3)c2ccc(-c3cc(O)cc4ccccc34)c(F)c2n1 [Example 31, 4-(4-((1R,5S)-3,8-diazabicyclo[3.2.1]octan-3-yl)-2-(((S)-4,4-difluoro-1-methylpyrrolidin-2-yl)methoxy)-8-fluoroquinazolin-7-yl)naphthalen-2-ol] | 121 nM | 297 nM | 8500 nM
3 | CN1CCC[C@H]1COc1nc(N2C[C@H]3CC[C@@H](C2)N3)c2ccc(-c3cc(O)cc4ccccc34)cc2n1 [Example 10, 4-(4-((1R,5S)-3,8-diazabicyclo[3.2.1]octan-3-yl)-2-(((S)-1-methylpyrrolidin-2-yl)methoxy)quinazolin-7-yl)naphthalen-2-ol] | 19 nM | 22.9 nM | 5660 nM
4 | CN1CCC[C@H]1COc1nc2c(c(N3CC4CCC3CN4)n1)CCN(c1cc(O)cc3ccccc13)C2 (stereo partly drawn) [Example 16, 4-(4-(2,5-diazabicyclo[2.2.2]octan-2-yl)-2-(((S)-1-methylpyrrolidin-2-yl)methoxy)-5,8-dihydropyrido[3,4-d]pyrimidin-7(6H)-yl)naphthalen-2-ol] | 300 nM | 152 nM | 5950 nM
5 | CN1CCC[C@H]1COc1nc(N2C[C@H]3CC[C@@H](C2)N3)c2ccc(-c3cccc4ccc(F)cc34)c(F)c2n1 [Example 13, 4-((1R,5S)-3,8-diazabicyclo[3.2.1]octan-3-yl)-8-fluoro-7-(7-fluoronaphthalen-1-yl)-2-(((S)-1-methylpyrrolidin-2-yl)methoxy)quinazoline] | 78 nM | 61.9 nM | 5560 nM
6 | CN1CCC[C@H]1COc1nc(N2C[C@H]3CC[C@@H](C2)N3)c2cc(Cl)c(-c3cc(O)cc4ccccc34)c(F)c2n1 [Example 7, 4-(4-((1R,5S)-3,8-diazabicyclo[3.2.1]octan-3-yl)-6-chloro-8-fluoro-2-(((S)-1-methylpyrrolidin-2-yl)methoxy)quinazolin-7-yl)naphthalen-2-ol] | 9 nM | 11.2 nM | 1420 nM

From US20240034733A1, “KRAS G12D INHIBITORS” (Mirati Therapeutics, Inc., priority 2020, published 2024)
